Assay results taken from patent US6683063B2, “Prevention and treatment of pulmonary bacterial infection or symptomatic pulmonary exposure to endotoxin by inhalation of antiendotoxin drugs” (Eisai Co., Ltd., priority 1995, dated 2004).

Tested on: LPS-induced TNF-α in human whole blood
Assay: Persistence of compounds in human whole blood (preincubation, then LPS challenge, cytokine assay)
Assay type: cell-based
Details: average of 7 separate experiments in triplicate, FIG. 3
Description: FIG. 2 depicts the general scheme used to analyze antagonistic efficacy of drug after incubation in whole blood for various times.
Although some of the compounds of this invention are not rapidly removed from the circulation, their activity diminishes with a half-life of 1-3 hours. To maintain antagonistic efficacy, this rapid deactivation may require continuous administration. The study of this deactivation has led to the development of an assay to measure in vitro deactivation of drugs in human whole blood. This is done by preincubating lipid A antagonists with blood for various periods of time followed by addition of the LPS “challenge,” as is described above, incubation for three hours, and assay for released cytokines.

For `CCCCCCCCCCCC(=O)CC(=O)N[C@H]1[C@@H](OP(=O)(O)O)OC(CO[C@@H]2O[C@H](COC)[C@@H](OP(=O)(O)O)C(OCCC(CCCCCCC)OC(=O)CCC/C=C/C(C)CCCC)[C@H]2NC(=O)CC(=O)CCCCCCCCCCC)[C@@H](O)[C@@H]1OCC[C@H](O)CCCCCCC` (stereo partly shown) [Compound B531], the “persistence of LPS-antagonist activity (inhibition of TNF-α) versus time of preincubation” value was “loses activity with increasing time of preincubation”.
